# Experimental data published in US20130085064A1, “PESTICIDAL MIXTURES CONTAINING ISOXAZOLINE DERIVATIVES AND INSECTICIDE OR NEMATOICIDAL BIOLOGICAL AGENT” (priority 2010, published 2013).
# Values joined by “and” are separate entries in the source; they are usually repeats but may differ in a detail not shown here. Equal entries are not always repeated. Where two headings read alike, the source gives them in different places.
# Experiments:
# [1] = system: Heliothis virescens (tobacco budworm); experiment: Heliothis virescens eggs in 24-well microtiter plate on artificial diet, larval mortality; assay type: in vivo; settings: for pest or weed control at 0.375 ppm / pest or weed control at 0.75 ppm / pest or weed control at 1.5 ppm / pest or weed control at 3 ppm / pest or weed control at 6 ppm / pest or weed control at 12 ppm / pest or weed control at 6.25 ppm / pest or weed control at 12.5 ppm / pest or weed control at 25 ppm / pest or weed control at 50 ppm / pest or weed control at 100 ppm / pest or weed control at 200 ppm: Heliothis virescens, 96 h, read-out: AVERAGE DEAD IN %
# From the text: (§1) The action to be expected E for a given active ingredient combination obeys the so-called COLBY formula and can be calculated as follows (COLBY, S.R. “Calculating synergistic and antagonistic responses of herbicide combination”. Weeds, Vol. 15, pages 20-22; 1967):
# (§2) ppm=milligrams of active ingredient (=a.i.) per liter of spray mixture X=% action by active ingredient A) using p ppm of active ingredient Y=% action by active ingredient B) using q ppm of active ingredient.
# (§3) According to COLBY, the expected (additive) action of active ingredients A)+B) using p+q ppm of active ingredient is
# (§4) If the action actually observed (O) is greater than the expected action (E), then the action of the combination is super-additive, i.e. there is a synergistic effect. In mathematical terms the synergism factor SF corresponds to O/E. In the agricultural practice an SF of ≧1.2 indicates significant improvement over the purely complementary addition of activities (expected activity), while an SF of ≦0.9 in the practical application routine signals a loss of activity compared to the expected activity.
# Heliothis Virescens (Tobacco Budworm)
# Eggs (0-24 h old) are placed in 24-well microtiter plate on artificial diet and treated with test solutions (DMSO) by pipetting. After an incubation period of 4 days, samples are checked for larval mortality.
# [2] = system: Tetranychus urticae (two-spotted spider mite); experiment: Tetranychus urticae bean leaf discs in 24-well microtiter plates, mixed population mortality; assay type: in vivo; settings: 8 days
# From the text: as §1, §2, §3, §4
# Tetranychus Urticae (Two-Spotted Spider Mite)
# Bean leaf discs on agar in 24-well microtiter plates are sprayed with test solutions (DMSO). After drying, the leaf discs are infested with mite populations of mixed ages. 8 days later, discs are checked for mixed population mortality.
# [3] = single compound, 12.5 ppm AI, larval mortality, 4 days
# [4] = single compound, 25 ppm AI, larval mortality, 4 days
# [5] = single compound, 50 ppm AI, larval mortality, 4 days
# [6] = single compound, 100 ppm AI, larval mortality, 4 days
# [7] = single compound, 200 ppm AI, larval mortality, 4 days
compound,measurement,setting,value
Cc1cc(C2=NOC(c3cc(Cl)cc(Cl)c3)(C(F)(F)F)C2)ccc1C(=O)NC1CSC1 (racemic) [SYN 545706],AVERAGE DEAD IN %,"[1]; single compound, 0.1 ppm AI, larval mortality, 4 days",0%
same,AVERAGE DEAD IN %,"[1]; single compound, 0.2 ppm AI, larval mortality, 4 days",35% and 25%
same,AVERAGE DEAD IN %,"[1]; single compound, 0.4 ppm AI, larval mortality, 4 days",90% and 78%
same,AVERAGE DEAD IN %,"[1]; single compound, 0.8 ppm AI, larval mortality, 4 days",95% and 88%
same,AVERAGE DEAD IN %,"[1]; single compound, 1.6 ppm AI, larval mortality, 4 days",90% and 91%
same,AVERAGE DEAD IN %,"[1]; single compound, 3.2 ppm AI, larval mortality, 4 days",98% and 96%
CN/C(=N\[N+](=O)[O-])NCc1cnc(Cl)s1 [Clothianidin],pest or weed control at 0.375 ppm,[1]; Clothianidin alone 0.375 ppm AI,0%
same,pest or weed control at 0.75 ppm,[1]; Clothianidin alone 0.75 ppm AI,0%
same,pest or weed control at 1.5 ppm,[1]; Clothianidin alone 1.5 ppm AI,0%
same,pest or weed control at 3 ppm,[1]; Clothianidin alone 3 ppm AI,3%
same,pest or weed control at 6 ppm,[1]; Clothianidin alone 6 ppm AI,38%
same,pest or weed control at 12 ppm,[1]; Clothianidin alone 12 ppm AI,48%
same,pest or weed control at 0.375 ppm,[1]; single compound at 0.375 ppm AI,0%
same,pest or weed control at 0.75 ppm,[1]; single compound at 0.75 ppm AI,0%
same,pest or weed control at 1.5 ppm,[1]; single compound at 1.5 ppm AI,0%
same,pest or weed control at 3 ppm,[1]; single compound at 3 ppm AI,3%
same,pest or weed control at 6 ppm,[1]; single compound at 6 ppm AI,38%
same,pest or weed control at 12 ppm,[1]; single compound at 12 ppm AI,48%
same,pest or weed control at 0.375 ppm,"[1]; single compound, 0.375 ppm AI, larval mortality, 4 days",0%
same,pest or weed control at 0.75 ppm,"[1]; single compound, 0.75 ppm AI, larval mortality, 4 days",0%
same,pest or weed control at 1.5 ppm,"[1]; single compound, 1.5 ppm AI, larval mortality, 4 days",0%
same,pest or weed control at 3 ppm,"[1]; single compound, 3 ppm AI, larval mortality, 4 days",0%
same,pest or weed control at 6 ppm,"[1]; single compound, 6 ppm AI, larval mortality, 4 days",45%
same,pest or weed control at 12 ppm,"[1]; single compound, 12 ppm AI, larval mortality, 4 days",80%
N#CCNC(=O)c1cnccc1C(F)(F)F [Flonicamid],AVERAGE DEAD IN %,[1]; Flonicamid alone 12.5 ppm AI,0%
same,AVERAGE DEAD IN %,[1]; Flonicamid alone 25 ppm AI,0%
same,AVERAGE DEAD IN %,[1]; Flonicamid alone 50 ppm AI,0%
same,AVERAGE DEAD IN %,[1]; Flonicamid alone 100 ppm AI,0%
same,AVERAGE DEAD IN %,[1]; Flonicamid alone 200 ppm AI,0%
same,AVERAGE DEAD IN %,[1]; Flonicamid alone 400 ppm AI,0%
same,AVERAGE DEAD IN %,[1]; single compound at 12.5 ppm AI,0%
same,AVERAGE DEAD IN %,[1]; single compound at 25 ppm AI,0%
same,AVERAGE DEAD IN %,[1]; single compound at 50 ppm AI,0%
same,AVERAGE DEAD IN %,[1]; single compound at 100 ppm AI,0%
same,AVERAGE DEAD IN %,[1]; single compound at 200 ppm AI,0%
same,AVERAGE DEAD IN %,[1]; single compound at 400 ppm AI,0%
same,AVERAGE DEAD IN %,[1]; [3],0%
same,AVERAGE DEAD IN %,[1]; [4],0%
same,AVERAGE DEAD IN %,[1]; [5],15%
same,AVERAGE DEAD IN %,[1]; [6],0%
same,AVERAGE DEAD IN %,[1]; [7],0%
same,AVERAGE DEAD IN %,"[1]; single compound, 400 ppm AI, larval mortality, 4 days",0%
O=[N+]([O-])NC1=NCCN1Cc1ccc(Cl)nc1 [Imidacloprid],AVERAGE DEAD IN %,[2]; 25 ppm alone,0%
same,AVERAGE DEAD IN %,[2]; 50 ppm alone,0%
same,AVERAGE DEAD IN %,[2]; 100 ppm alone,25%
same,AVERAGE DEAD IN %,[2]; 200 ppm alone,0%
same,AVERAGE DEAD IN %,[2]; 400 ppm alone,13%
same,AVERAGE DEAD IN %,[2]; 800 ppm alone,25%
same,AVERAGE DEAD IN %,"[2]; Imidacloprid alone, 25 ppm, Table 123",0%
same,AVERAGE DEAD IN %,"[2]; Imidacloprid alone, 50 ppm, Table 123",0%
same,AVERAGE DEAD IN %,"[2]; Imidacloprid alone, 100 ppm, Table 123",25%
same,AVERAGE DEAD IN %,"[2]; Imidacloprid alone, 200 ppm, Table 123",0%
same,AVERAGE DEAD IN %,"[2]; Imidacloprid alone, 400 ppm, Table 123",13%
same,AVERAGE DEAD IN %,"[2]; Imidacloprid alone, 800 ppm, Table 123",25%
same,pest or weed control at 6.25 ppm,[1]; Imidacloprid alone 6.25 ppm AI,0%
same,pest or weed control at 12.5 ppm,[1]; Imidacloprid alone 12.5 ppm AI,0%
same,pest or weed control at 25 ppm,[1]; Imidacloprid alone 25 ppm AI,20%
same,pest or weed control at 50 ppm,[1]; Imidacloprid alone 50 ppm AI,50%
same,pest or weed control at 100 ppm,[1]; Imidacloprid alone 100 ppm AI,95%
same,pest or weed control at 200 ppm,[1]; Imidacloprid alone 200 ppm AI,100%
same,pest or weed control at 6.25 ppm,[1]; single compound at 6.25 ppm AI,0%
same,pest or weed control at 12.5 ppm,[1]; single compound at 12.5 ppm AI,0%
same,pest or weed control at 25 ppm,[1]; single compound at 25 ppm AI,20%
same,pest or weed control at 50 ppm,[1]; single compound at 50 ppm AI,50%
same,pest or weed control at 100 ppm,[1]; single compound at 100 ppm AI,95%
same,pest or weed control at 200 ppm,[1]; single compound at 200 ppm AI,100%
same,pest or weed control at 6.25 ppm,"[1]; single compound, 6.25 ppm AI, larval mortality, 4 days",0%
same,pest or weed control at 12.5 ppm,[1]; [3],0%
same,pest or weed control at 25 ppm,[1]; [4],75%
same,pest or weed control at 50 ppm,[1]; [5],85%
same,pest or weed control at 100 ppm,[1]; [6],88%
same,pest or weed control at 200 ppm,[1]; [7],100%
Emamectin,AVERAGE DEAD IN %,[2]; 0.1 ppm alone,70%
same,AVERAGE DEAD IN %,[2]; 0.2 ppm alone,75%
same,AVERAGE DEAD IN %,[2]; 0.4 ppm alone,93%
same,AVERAGE DEAD IN %,[2]; 0.8 ppm alone,95%
same,AVERAGE DEAD IN %,[2]; 1.6 ppm alone,95%
same,AVERAGE DEAD IN %,[2]; 3.2 ppm alone,100%
same,AVERAGE DEAD IN %,"[2]; Emamectin alone, 0.1 ppm, Table 121",70%
same,AVERAGE DEAD IN %,"[2]; Emamectin alone, 0.2 ppm, Table 121",75%
same,AVERAGE DEAD IN %,"[2]; Emamectin alone, 0.4 ppm, Table 121",93%
same,AVERAGE DEAD IN %,"[2]; Emamectin alone, 0.8 ppm, Table 121",95%
same,AVERAGE DEAD IN %,"[2]; Emamectin alone, 1.6 ppm, Table 121",95%
same,AVERAGE DEAD IN %,"[2]; Emamectin alone, 3.2 ppm, Table 121",100%
